From patent US20220125051A1, “PRE-HARVEST DESICCATION METHOD” (SYNGENTA CROP PROTECTION AG, priority 2019, published 2022)
Where two headings read alike, the source gives them in different places.

How the values were obtained:
Assay in all cases: Post-emergence efficacy, Method A
Format in all cases: in vivo
[1] = test system: Echinochloa crus-galli (ECHCG); conditions: evaluated after 13 days; for pest or weed control at 500 g/ha: Echinochloa crus-galli, post-emergence, 312 h
How it was run: (§1)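 Sow in standard soil; grow 14 d under glasshouse control (24/16 °C, 14 h light, 65% humidity). Spray post-emergence with compound formulated in acetone/IF50, diluted in Empicol ESC70 (0.25% or 1%) + 1% ammonium sulphate. Return to glasshouse, water twice daily, score at 13 d on a 0–100 damage scale.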

Lolium perenne (LOLPE) = conditions: evaluated after 13 days; for pest or weed control at 500 g/ha: Lolium perenne, post-emergence, 312 h
How it was run: as §1

[2] = test system: Chenopodium album (CHEAL); conditions: evaluated after 13 days; for pest or weed control at 500 g/ha: Chenopodium album, post-emergence, 312 h
How it was run: as §1

[3] = test system: Digitaria sanguinalis (DIGSA); conditions: evaluated after 13 days; for pest or weed control at 500 g/ha: Digitaria sanguinalis, post-emergence, 312 h
How it was run: as §1

[4] = test system: Ipomoea hederacea (IPOHE); conditions: evaluated after 13 days; for pest or weed control at 500 g/ha: Ipomoea hederacea, post-emergence, 312 h
How it was run: as §1

[5] = test system: Amaranthus palmeri (AMAPA); conditions: evaluated after 13 days; for pest or weed control at 500 g/ha: Amaranthus palmeri, post-emergence, 312 h
How it was run: as §1

[6] = test system: Euphorbia heterophylla (EPHHL); conditions: evaluated after 13 days; for pest or weed control at 500 g/ha: Euphorbia heterophylla, post-emergence, 312 h
How it was run: as §1

Setaria faberi (SETFA) = conditions: evaluated after 13 days; for pest or weed control at 500 g/ha: Setaria faberi, post-emergence, 312 h
How it was run: as §1

Eleusine indica (ELEIN) = conditions: evaluated after 13 days; for pest or weed control at 500 g/ha: Eleusine indica, post-emergence, 312 h
How it was run: as §1

[7] = Application Rate 500 g/Ha, Method A, read-out: Control of weed species after post-emergence application, ECHCG (100=total damage to plant; 0=no damage to plant)
[8] = Application Rate 500 g/Ha, Method A, read-out: Control of weed species after post-emergence application, LOLPE (100=total damage to plant; 0=no damage to plant)
[9] = Application Rate 500 g/Ha, Method A, read-out: Control of weed species after post-emergence application, CHEAL (100=total damage to plant; 0=no damage to plant)
[10] = Application Rate 500 g/Ha, Method A, read-out: Control of weed species after post-emergence application, DIGSA (100=total damage to plant; 0=no damage to plant)
[11] = Application Rate 500 g/Ha, Method A, read-out: Control of weed species after post-emergence application, IPOHE (100=total damage to plant; 0=no damage to plant)
[12] = Application Rate 500 g/Ha, Method A, read-out: Control of weed species after post-emergence application, AMAPA (100=total damage to plant; 0=no damage to plant)
[13] = Application Rate 500 g/Ha, Method A, read-out: Control of weed species after post-emergence application, EPHHL (100=total damage to plant; 0=no damage to plant)
[14] = Application Rate 500 g/Ha, Method A, read-out: Control of weed species after post-emergence application, SETFA (100=total damage to plant; 0=no damage to plant)
[15] = Application Rate 500 g/Ha, Method A, read-out: Control of weed species after post-emergence application, ELEIN (100=total damage to plant; 0=no damage to plant)
[16] = Application rate 500 g/Ha, 100=total damage to plant, 0=no damage to plant, read-out: Control of weed species after post-emergence application, ECHCG
[17] = Application rate 500 g/Ha, 100=total damage to plant, 0=no damage to plant, read-out: Control of weed species after post-emergence application, LOLPE
[18] = Application rate 500 g/Ha, 100=total damage to plant, 0=no damage to plant, read-out: Control of weed species after post-emergence application, CHEAL
[19] = Application rate 500 g/Ha, 100=total damage to plant, 0=no damage to plant, read-out: Control of weed species after post-emergence application, DIGSA
[20] = Application rate 500 g/Ha, 100=total damage to plant, 0=no damage to plant, read-out: Control of weed species after post-emergence application, IPOHE
[21] = Application rate 500 g/Ha, 100=total damage to plant, 0=no damage to plant, read-out: Control of weed species after post-emergence application, AMAPA
[22] = Application rate 500 g/Ha, 100=total damage to plant, 0=no damage to plant, read-out: Control of weed species after post-emergence application, EPHHL
[23] = Application rate 500 g/Ha, 100=total damage to plant, 0=no damage to plant, read-out: Control of weed species after post-emergence application, SETFA
[24] = Application rate 500 g/Ha, 100=total damage to plant, 0=no damage to plant, read-out: Control of weed species after post-emergence application, ELEIN
[25] = Application rate 500 g/Ha, 100=total damage to plant, 0=no damage to plant

Row | Compound | pest or weed control at 500 g/ha [1, 16] | pest or weed control at 500 g/ha (Lolium perenne (LOLPE); [17]) | pest or weed control at 500 g/ha [2, 18] | pest or weed control at 500 g/ha [3, 19] | pest or weed control at 500 g/ha [4, 20] | pest or weed control at 500 g/ha [5, 21] | pest or weed control at 500 g/ha [6, 22] | pest or weed control at 500 g/ha (Setaria faberi (SETFA); [23]) | pest or weed control at 500 g/ha (Eleusine indica (ELEIN); [24]) | other results
1 | CN(C)S(=O)(=O)[N-]C(=O)C[n+]1ccc(-c2ncccn2)cn1 [Compound A214, dimethylsulfamoyl-[2-(4-pyrimidin-2-ylpyridazin-1-ium-1-yl)acetyl]azanide] |  |  |  |  |  |  |  |  |  | pest or weed control at 500 g/ha [1, 7]: 100%; pest or weed control at 500 g/ha (Lolium perenne (LOLPE); [8]): 80%; pest or weed control at 500 g/ha [2, 9]: 100%; pest or weed control at 500 g/ha [3, 10]: 100%; pest or weed control at 500 g/ha [4, 11]: 40%; pest or weed control at 500 g/ha [5, 12]: 100%; pest or weed control at 500 g/ha [6, 13]: 100%; pest or weed control at 500 g/ha (Setaria faberi (SETFA); [14]): 90%; pest or weed control at 500 g/ha (Eleusine indica (ELEIN); [15]): 100%
2 | O=S(=O)([O-])CC[n+]1ccc(-c2ncccc2Cl)cn1 [Compound A141] | 50% | 30% | 60% | 40% | 30% | 100% | 20% | 50% | 60% | 
3 | O=C(O)CC[n+]1ccc(-c2ncccc2C(F)(F)F)cn1 [Compound A128] | 30% | 40% | 10% | 30% | 0% | 30% | 0% | 30% | 50% | 
4 | Cc1cc(-c2cc[n+](CCS(=O)(=O)[O-])nc2)ncn1 [Compound A117] | 90% | 50% | 90% | 70% | 80% | 90% | 100% | 100% | 90% | 
5 | O=P(O)(O)CC[n+]1ccc(-c2ncccn2)cn1 [Compound A198] |  |  |  |  |  |  |  |  |  | pest or weed control at 500 g/ha [1, 7]: 80%; pest or weed control at 500 g/ha (Lolium perenne (LOLPE); [8]): 50%; pest or weed control at 500 g/ha [2, 9]: 100%; pest or weed control at 500 g/ha [3, 10]: 80%; pest or weed control at 500 g/ha [4, 11]: 50%; pest or weed control at 500 g/ha [5, 12]: 100%; pest or weed control at 500 g/ha [6, 13]: 100%; pest or weed control at 500 g/ha (Setaria faberi (SETFA); [14]): 90%; pest or weed control at 500 g/ha (Eleusine indica (ELEIN); [15]): 80%
6 | O=S(=O)(O)CC[n+]1ccc(-c2ccncc2F)cn1 [Compound A159] |  |  |  |  |  |  |  |  |  | pest or weed control at 500 g/ha [1, 7]: 70%; pest or weed control at 500 g/ha (Lolium perenne (LOLPE); [8]): 40%; pest or weed control at 500 g/ha [2, 9]: 100%; pest or weed control at 500 g/ha [3, 10]: 30%; pest or weed control at 500 g/ha [4, 11]: 50%; pest or weed control at 500 g/ha [5, 12]: 100%; pest or weed control at 500 g/ha [6, 13]: 80%; pest or weed control at 500 g/ha (Setaria faberi (SETFA); [14]): 60%; pest or weed control at 500 g/ha (Eleusine indica (ELEIN); [15]): 50%
7 | Cc1cnc(-c2cc[n+](CCS(=O)(=O)[O-])nc2)c(Cl)c1 [Compound A136] | 40% | 20% | 30% | 60% | 30% | 60% | 30% | 70% | 50% | 
8 | O=S(=O)(O)CCC[n+]1ccc(-c2cnccn2)cn1 [Compound A10] | 30% | 90% | 100% | 60% | 40% | 100% | 100% | 60% | 50% | 
9 | Cc1cnc(-c2cc[n+](CCS(=O)(=O)[O-])nc2)c(C)c1 [Compound A152] | 20% | 10% | 10% | 30% | 0% | 20% | 20% | 20% | 20% | 
10 | COC(=O)c1cnc(-c2cc[n+](CCS(=O)(=O)[O-])nc2)nc1 [Compound A33] | 40% | 50% | 80% | 60% | 40% | 100% | 60% | 60% | 80% | 
11 | O=S(=O)([O-])CCC[n+]1ccc(-c2cnc(F)cn2)cn1 [Compound A98] | 20% | 0% | 20% | 10% | 30% | 40% | 40% | 20% | 20% | 
12 | Cc1cccc(-c2cc[n+](CCC(=O)[O-])nc2)n1 [Compound A63] | 40% | 20% | 30% | 30% | 20% | 40% | 30% | 40% | 50% | 
13 | COc1cc(C)nc(-c2cc[n+](CCS(=O)(=O)O)nc2)n1 [Compound A94] |  |  |  |  |  |  |  |  |  | Control of weed species after post-emergence application, ECHCG [1, 25]: 30; Control of weed species after post-emergence application, LOLPE (Lolium perenne (LOLPE); [25]): 20; Control of weed species after post-emergence application, CHEAL [2, 25]: 90; Control of weed species after post-emergence application, DIGSA [3, 25]: 30; Control of weed species after post-emergence application, IPOHE [4, 25]: 30; Control of weed species after post-emergence application, AMAPA [5, 25]: 70; Control of weed species after post-emergence application, EPHHL [6, 25]: 40; Control of weed species after post-emergence application, SETFA (Setaria faberi (SETFA); [25]): 40; Control of weed species after post-emergence application, ELEIN (Eleusine indica (ELEIN); [25]): 20
14 | Cc1cccnc1-c1cc[n+](CCC(=O)[O-])nc1 [Compound A65] | 30% | 10% | 10% | 30% | 10% | 40% | 20% | 40% | 40% | 
15 | OCCC[n+]1ccc(-c2ncccn2)cn1 [Compound A206] |  |  |  |  |  |  |  |  |  | pest or weed control at 500 g/ha [1, 7]: 20%; pest or weed control at 500 g/ha (Lolium perenne (LOLPE); [8]): 0%; pest or weed control at 500 g/ha [2, 9]: 90%; pest or weed control at 500 g/ha [3, 10]: 20%; pest or weed control at 500 g/ha [4, 11]: 20%; pest or weed control at 500 g/ha [5, 12]: 60%; pest or weed control at 500 g/ha [6, 13]: 60%; pest or weed control at 500 g/ha (Setaria faberi (SETFA); [14]): 10%; pest or weed control at 500 g/ha (Eleusine indica (ELEIN); [15]): 10%
